Source: patent US5288905A, “Glycyl urea derivatives as anti-convulsants” (G. D. Searle & Co., priority 1991, dated 1994)

What was measured:
mice [1] = tested on: mice; parameters: species or system male Swiss albino mice; settings: mouse, in vivo, po
Experimental: (§1) Treatment of a mammal afflicted by or susceptible to certain CNS disorders is accomplished by administration of a therapeutically-effective amount of a compound of Formula I. In particular, Compounds #1-11 of Table II were evaluated by in vitro and in vivo animal model assays to determine the pharmacological properties of such compounds and their likely suitability for use as therapeutic drugs in humans. These biological assays, as described below, consisted of prevention of induced convulsions in mice, determination of acute toxicity in mice and animal behavior assays. Except as otherwise specified, the animals used in the in vivo tests were male Swiss albino mice weight 22 to 33 g [CDl, Charles River, France], housed in groups of 10 on a 12-hour dark-light cycle for at least one week before use and fasted overnight prior to testing.
Behavioral effects of compounds of the invention on animals were determined by observations taken at 5 to 6 hours and at 24 hours after administration of compounds in the acute toxicity studies. Determinations were made based on a method derived from that of S. Irwin [See R. A. Turner, Screening Methods in Pharmacology, Chapter 3, pages 22-34, Academic Press, N.Y. (1965)]. If an anomaly were noted, the observation was extended and smaller doses were tested. Possible types of behavior to be observed are as follows: analgesia (AAG), convulsions (CON), depression (DEP), exophthalmia (EOP), excitation (EXC), hyperalgesia (HAG), hypothermia (ATH), hypotonia (ATN), piloerection (PIE), palpebral ptosis (PTO), reduction of the pinna reflux (RPI), reduction of the rearing reflex (RRE), reduction of the flexion reflex (RRF), sedation (SED), tremors (TRE), cyanosis (CYA), diarrhea (DIA), increase of the pinna reflex (HPI), increase of the flexion reflex (HRF), dyspnea (DYS), toxic (TOX), zero ("0") means no effect. Behaviors observed are reported in Table V by numbers which represent the dose at which the behavior is observed.

[2] = Acute toxicity in mice after oral administration; parameters: species or system male Swiss albino mice; settings: mouse, in vivo, mortality over 15 days
Experimental: as §1
The acute toxicity of compounds of the invention was determined after oral administration of the test compound to mice. Compound to be tested was suspended in a 1% tragacanth gum mucilage, and was administered by means of an intragastric probe to a group of three male mice. Doses used in the test were determined by observing toxic effects on the mice, which doses varied from 3,000 mg/kg down to about 3 mg/kg. The mortality was recorded over a period of 15 days. The LD50 results reported in Table V were calculated according to published methods [Lichtfield and Wilcoxon, J. Pharmacol. Exp. Ther., 96, 99 (1949)] and expressed in mg of test compound per kilogram of mouse body weight.

mice [3] = assay: Prevention of 3-mercaptopropionic acid (3-MPA)-induced convulsions in mice; format: in vivo, male Swiss albino mice; settings: for Number of Mice Protected From Convulsions Induced by 3-MPA at 100 mg/kg, 30 min interval / Number of Mice Protected From Convulsions Induced by 3-MPA at 100 mg/kg, 2 hr interval: 100 mg/kg orally, 3-MPA 120 mg/kg subcutaneously, two groups of five animals; for Number of Mice Protected From Convulsions Induced by 3-MPA at 100 mg/kg, 30 min interval: 30 min before convulsions induced; for Number of Mice Protected From Convulsions Induced by 3-MPA at 100 mg/kg, 2 hr interval: 2 hr before convulsions induced
Experimental: as §1
(§2) Compounds of Formula I were evaluated as inhibitors of convulsions and death induced by different convulsant agents: 3-mercaptopropionic acid (3-MPA; 120 mg/kg subcutaneously), bicuculline (BIC, 0.6 mg/kg intravenously), pentylenetetrazole (PTZ, 55 mg/kg intravenously) and supramaximal electroconvulsive shocks (ECS evoked by a current intensity of 48 mA, 50 Hz. 0.2 sec duration, 10 msec square pulse, corneal electrodes) [W. van Dorsser, D. Barris, A. Cordi and J. Roba, Arch. Int. Pharmacodyn., 266, 239-249 (1983)]. The compounds of the invention were administered orally at a dosage of either 100 mg/kg or 30 mg/kg in a volume of 10 ml/kg each to 5 mice. Tonic convulsions and the number of dead mice were noted. Results are given in Table III as a score which represents the total number of mice protected from convulsions induced by 3-mercaptopropionic acid at dose of 100 mg/kg for two groups of five animals, or the percentage of mice protected from convulsions induced by bicuculline at a dose of 30 mg/kg for four groups of five animals.
(§3) Based upon data generated from the previously-described anti-convulsant experiments, ED50 values were calculated at which Compound #6 inhibits convulsions induced by the convulsant agents listed in Table IV.

mice [4] = assay: Prevention of bicuculline (BIC)-induced convulsions in mice; format: in vivo, male Swiss albino mice; settings: Mus musculus, po; 30 mg/kg orally; bicuculline 0.6 mg/kg intravenously; four groups of five animals; read-out: Percentage of Mice Protected from Bicuculline
Experimental: as §1, §2

mice [5] = assay: 5HTP-induced head twitch in mice; format: in vivo, male Swiss albino mice; settings: Mus musculus, po, 2 hours before 5HTP challenge (10 mg/kg i.p.) after nialamide 50 mg/kg i.p.; read-out: ED50 (inhibition of 5HTP-induced head twitches)
Experimental: as §1
Compound #6 was evaluated for inhibition of head twitches produced in mice by administration of L-5-hydroxytryptophan (5HTP, 10 mg/kg intraperitoneously) after nialamide treatment (50 mg/kg intraperitoneal, 22 hours before the test). The head twitches were counted for 45 min. starting 15 min. after 5HTP administration. [E. Friedmann et al.; Europ. J. Pharmocol., 89, 69-76 (1983)].

mice [6] = assay: Inhibition of convulsions induced by supramaximal electroconvulsive shocks (ECS) in mice; format: in vivo, male Swiss albino mice; settings: Mus musculus, po; ECS 48 mA, 50 Hz, 0.2 sec, corneal electrodes; compound orally; read-out: Inhibition of Convulsions by Cpd. #6 (ED50), ECS
Experimental: as §1, with “Except as otherwise specified, the animals used in the in vivo tests were male Swiss albino mice weight 22 to 33 g [CDl, Charles River, France], housed in groups of 10 on a 12-hour dark-light cycle for at least one week before use and fasted overnight prior to testing.” left out
(§4) Compounds of Formula I were evaluated as inhibitors of convulsions and death induced by different convulsant agents: 3-mercaptopropionic acid (3-MPA; 120 mg/kg subcutaneously), bicuculline (BIC, 0.6 mg/kg intravenously), pentylenetetrazole (PTZ, 55 mg/kg intravenously) and supramaximal electroconvulsive shocks (ECS evoked by a current intensity of 48 mA, 50 Hz. 0.2 sec duration, 10 msec square pulse, corneal electrodes) [W. van Dorsser, D. Barris, A. Cordi and J. Roba, Arch. […]
as §3

mice [7] = assay: Inhibition of pentylenetetrazole (PTZ)-induced convulsions in mice; format: in vivo, male Swiss albino mice; settings: Mus musculus, po; convulsant PTZ 55 mg/kg intravenously; compound orally; read-out: Inhibition of Convulsions by Cpd. #6 (ED50), PZT
Experimental: as §1, with “Except as otherwise specified, the animals used in the in vivo tests were male Swiss albino mice weight 22 to 33 g [CDl, Charles River, France], housed in groups of 10 on a 12-hour dark-light cycle for at least one week before use and fasted overnight prior to testing.” left out
as §4, §3

rat frontal cortex = assay: Chronic focal epilepsy assay (cobalt powder on rat frontal cortex, EEG spike activity); format: in vivo; settings: ip, intraperitoneal, cobalt-induced spikes, read-out: threshold dose for inhibiting spike activities
Experimental: In a model of chronic focal epilepsy where cobalt powder is placed on rat frontal cortex, the animals develop, after several days, chronic expression of afterdischarge-like spike activity which can be recorded by EEG. Compound #6 has, when administered by intraperitoneal route, a threshold dose of 200 mg/kg for inhibiting these spike activities with the effect being observed from 30 to 90 minutes.

SMILES | Behavior (dose at which the behavior is observed : behavior) (mice [1]) | LD50 at 360 h [2] | Number of Mice Protected From Convulsions Induced by 3-MPA at 100 mg/kg, 30 min interval (mice [3]) | Number of Mice Protected From Convulsions Induced by 3-MPA at 100 mg/kg, 2 hr interval (mice [3]) | responders at 30 mg/kg (mice [4]) | ED50 (mice [5]) | ED50 (mice [6]) | ED50 (mice [3]; Mus musculus, po, convulsant 3-MPA 120 mg/kg subcutaneously, compound orally, read-out: Inhibition of Convulsions by Cpd. #6 (ED50), 3-MPA) | ED50 (mice [7]) | minimal effective dose (rat frontal cortex)
CCCCCCCCNC(=O)NC(=O)CNCCc1ccccc1 [Compound 3, 1-octyl-3-[2-(2-phenylethyl)amino-1-oxoethyl]urea] | 3000:SED, ATN | > 3000 mg/kg | 6 mice | 3 mice | 55% | – | – | – | – | –
CCCCCCCCNCC(=O)NC(=O)NCCCCCCCC [Compound 4, 1-octyl-3-(2-octylamino-1-oxoethyl)urea] | 3000:0 mg/kg | > 3000 mg/kg | 4 mice | 3 mice | 35% | – | – | – | – | –
CCCCCNCC(=O)NC(=O)NCCCCC [Compound 8, 1-pentyl-3-(2-pentylamino-1-oxoethyl)urea] | – | > 3000 mg/kg | 0 mice | – | 40% | – | – | – | – | –
O=C(CNC(c1ccccc1)c1ccccc1)NC(=O)NCCc1ccccc1 [Compound 11, 1-(2-phenylethyl)-3-(2-diphenylmethylamino-1-oxoethyl)urea] | – | – | 0 mice | – | – | – | – | – | – | –
CCCCCCCCNCC(=O)NC(=O)NCCc1ccccc1 [Compound 6, 1-(2-phenylethyl)-3-(2-octylamino-1-oxoethyl)urea] | 1000:SED, ATN | > 3000 mg/kg | 9 mice | 9 mice | 35% | 200 mg/kg | 60 mg/kg | 16 mg/kg | 56 mg/kg | 200 mg/kg
CCCCCCCCNC(=O)NC(=O)CNCCCCC [Compound 1, 1-octyl-3-(2-pentylamino-1-oxoethyl)urea] | 1000:0 mg/kg | > 1000 mg/kg | 0 mice | – | 35% | – | – | – | – | –
O=C(CNCCc1ccccc1)NC(=O)NCCc1ccccc1 [Compound 5, 1-(2-phenylethyl)-3-[2-(2-phenylethyl)amino-1-oxoethyl]urea] | 3000:TOX, DEP | 1750 mg/kg | 6 mice | 1 mice | 45% | – | – | – | – | –
CCCCCNCC(=O)NC(=O)NCCc1ccccc1 [Compound 2, 1-(2-phenylethyl)-3-(2-pentylamino-1-oxoethyl)urea] | 1000:SED, RPI, RRE | > 1000 mg/kg | 3 mice | – | 25% | – | – | – | – | –
CCCCCCCCNCC(=O)NC(=O)NCCCCC [Compound 9, 1-pentyl-3-(2-octylamino-1-oxoethyl)urea] | 1000:0 mg/kg | > 1000 mg/kg | 7 mice | 4 mice | 35% | – | – | – | – | –
CNC(=O)NC(=O)CNC(c1ccccc1)c1ccccc1 [Compound 10, 1-methyl-3-(2-diphenylmethylamino-1-oxoethyl)urea] | – | – | 1 mice | – | – | – | – | – | – | –
CCCCCNC(=O)NC(=O)CNCCc1ccccc1 [Compound 7, 1-pentyl-3-[2-(2-phenylethyl)amino-1-oxoethyl]urea] | 1000:SED | > 3000 mg/kg | 1 mice | – | 25% | – | – | – | – | –
